Experiments:
[1] = test system: human iPS cells (201B7 line and 1231A3 line); test: Production of RPE cells from human iPS cells including MEK inhibitor treatment step (Example 1); assay type: cell-based
Experimental: The medium used was “STEMFIT™” AK03 medium (Ajinomoto Co., Inc.) (hereinafter AK03 medium) or Essential 8 medium (Life Technologies).
Production of retinal pigment epithelial (RPE) cells including an MEK inhibitor treatment step was performed as follows. iPS cells under culture for maintaining undifferentiated state were treated with 0.5×TrypLE select (mixture of equal amounts of TrypLE select (Life Technologies)) and 0.5 mM EDTA/PBS(−)), dissociated using a cell scraper, dispersed to single cells by pipetting, seeded in a 6-well culture plate coated with iMatrix-511 (Nippi) (0.5 μg/cm^2) at 1.2×10^4 cells per 1 well, and cultured in an AK03 medium or Essential 8 medium containing a ROCK inhibitor [10 μM Y-27632 (Wako Pure Chemical Industries, Ltd.)] under 37° C., 5% CO2 conditions. On the next day of seeding, PD0325901 (SIGMA) as an MEK inhibitor was added to the AK03 medium at a final concentration of 1 μM or Essential 8 medium at a final concentration of 0.03 μM (start of the first step) and the cells were exposed thereto for 6 days (completion of the first step). […]

[2] = test system: human iPS cells (201B7 line and 1231A3 line); test: Production of RPE cells including combined treatment step of MEK inhibitor and/or FGF receptor inhibitor and various inhibitors or agonist (Example 3); assay type: cell-based; conditions: first step 6 days in AK03 medium; observed 38 to 47 days of culture; FIG. 7
Experimental: (§2) The medium used was “STEMFIT™” AK03 medium (Ajinomoto Co., Inc.) (hereinafter AK03 medium).
Production of retinal pigment epithelial (RPE) cells including a combined treatment step of MEK inhibitor and/or FGF receptor inhibitor, and various inhibitors, signal transduction pathway inhibitor or signal transduction pathway agonist was performed as follows. iPS cells under culture for maintaining undifferentiated state were treated with 0.5×TrypLE select, dissociated using a cell scraper, dispersed to single cells by pipetting, seeded in a 6-well culture plate coated with iMatrix-511 (Nippi) (0.5 μg/cm^2) at 1.2×10^4 cells per 1 well and cultured in a ROCK inhibitor [10 μM Y-27632 (Wako Pure Chemical Industries, Ltd.)]-containing AK03 medium under 37° C., 5% CO2 conditions. The next day of cell seeding, PD0325901 (SIGMA) (final concentration 1 μM) as an MEK inhibitor, PD173074 (SIGMA) (final concentration 100 nM) as an FGF receptor inhibitor, LDN193189 (STEMGENT) (final concentration 100 nM) as a BMP receptor inhibitor, SAG (Enzo Life Sciences) (final concentration 30 nM) as an Shh signal transduction pathway agonist, and Go6983 (SIGMA) (final concentration 2 μM) as a PKC inhibitor in the combination shown in FIG. 7 were added to the medium (start of the first step) and the cells were exposed thereto for 6 days (completion of the first step). […]

[3] = test system: human iPS cells (Ff-I01 line and QHJI01 line); test: Production of RPE cells including MEK inhibitor or FGF receptor inhibitor treatment step using iPS cells Ff-I01, QHJI01 (Example 4); assay type: cell-based; conditions: PD0325901 1 μM or PD173074 100 nM, 6 days, AK03N medium; day 43 of culture; both Ff-I01 and QHJI01 lines
Excerpt: (§1) 2014 Jan. 8; 4: 3594”. The medium used was “STEMFIT™” AK03N medium (Ajinomoto Co., Inc.) (hereinafter AK03N medium).

[4] = test system: human iPS cells (QHJI01 line); test: Number of days of exposure of each inhibitor in first step (Example 5); assay type: cell-based; conditions: day 48 of culture; for brown-black cell population: 4 days-6 days of exposure; for proportion of cells that developed color in the whole well versus number of exposure days: exposure 1 day to 6 days; for brown-black cell populations: exposure for not less than 2 days, PD0325901 1 μM or PD173074 100 nM
Excerpt: as §1

[5] = test system: human iPS cells (1231A3 line); test: MEK inhibitor exposure period in MEK inhibitor treatment step (Example 6); assay type: cell-based; conditions: PD0325901 1 μM, day 37 of culture
Experimental: as §2
Production of retinal pigment epithelial (RPE) cells including an MEK inhibitor treatment step was performed as follows. iPS cells under culture for maintaining undifferentiated state were treated with 0.5×TrypLE select (mixture of equal amounts of TrypLE select (Life Technologies) and 0.5 mM EDTA/PBS(−)), dissociated using a cell scraper, dispersed to single cells by pipetting, seeded in a 6-well culture plate coated with iMatrix-511 (Nippi) (0.5 μg/cm^2) at 1.2×10^4 cells per 1 well and cultured in a ROCK inhibitor [10 μM Y-27632 (Wako Pure Chemical Industries, Ltd.)]-containing AK03 medium under 37° C., 5% CO2 conditions. On the next day of seeding, 4 days later or 6 days later, PD0325901 (SIGMA) (final concentration 1 μM) as an MEK inhibitor was added to the AK03 medium (start of the first step) and the cells were exposed thereto for 6 days, 3 days or 1 day (completion of the first step). In addition, cells exposed to MEK inhibitor for 6 days were treated with 0.5×TrypLE select, dissociated using a cell scraper, dispersed to single cells by pipetting, seeded in a 6-well culture plate coated with iMatrix-511 (Nippi) (0.5 μg/cm^2) at 0.8×10^4 cells per 1 well and further cultured for 7 days in AK03 medium containing Y-27632 (final concentration 10 μM) and PD0325901 (final concentration 1 μM) under 37° C., 5% CO2 conditions, whereby the cells were exposed to the MEK inhibitor for 13 days (completion of the first step). Thereafter, the cells were treated with 0.5×TrypLE select, dissociated using a cell scraper, dispersed to single cells by pipetting, seeded in a 6-well culture plate coated with iMatrix-511 (0.5 μg/cm^2) at 1.2×10^6 cells per 1 well and cultured under 37° C., 5% CO2 conditions (start of the second step). […]

[6] = test system: human iPS cells (QHJI01 line); test: Inhibitor concentrations in MEK inhibitor or FGF receptor inhibitor treatment step (Example 8); assay type: cell-based; conditions: 6 days, day 36 and day 49 of culture
Excerpt: as §1

[7] = test system: human iPS cells (QHJI01 line); test: Seeded cell number in transition of first step to second step (Example 9); assay type: cell-based; conditions: all seeded cell number (0.2, 0.4, 0.6, 1.0, 2.0, or 4.0×10^4 cells/cm^2) at start of second step; PD0325901 1 μM or PD173074 100 nM, 6 days; day 49 of culture
Excerpt: as §1

[8] = test system: human iPS cells (QHJI01 line and 1231A3 line); test: MEK inhibitors PD184352, U0126, TAK-733, AZD-8330 in first step (Example 10); assay type: cell-based; conditions: 6 days; 1 μM PD0325901; 1.5, 3, 6 μM PD184352; 5, 10 μM U0126; 0.3 μM TAK-733; 0.3 μM AZD-8330; day 49 and day 50 of culture
Excerpt: The medium used was “STEMFIT™” AK03N medium (Ajinomoto Co., Inc.) (hereinafter AK03N medium).

[9] = test system: human iPS cells (1231A3 line); test: Production of RPE cells including MEK inhibitor or FGF receptor inhibitor treatment step, plate observation (Example 14); assay type: cell-based; conditions: PD0325901 1 μM or PD173074 100 nM, 6 days; day 43 of culture
Excerpt: as §1

RPE65, BEST1, CRALBP = test: RT-PCR of retinal pigment epithelial cell markers in produced RPE cells (Example 14); assay type: cell-based, human; conditions: PD0325901 1 μM or PD173074 100 nM, 6 days; cells collected day 43 of culture
Experimental: After observation on day 43 of culture, the cells were collected, RNA was extracted and RT-PCR was performed. RNeasy Micro Kit (QIAGEN) was used for RNA extraction, Oligo (dT)12-18 Primer (Invitrogen) and SuperScript III Reverse Transcriptase (Invitrogen) were used for reverse transcription reaction, and Blend Taq-Plus- (TOYOBO) was used for PCR. The primer sequences of RPE65, BEST1, CRLBP, GAPDH are as described below. […] NO: 1), […] NO: 2), […] NO: 3), […] NO: 4), CRALBP-[…] NO: 5), CRALBP-[…] NO: 6), […] NO: 7), […] NO: 8). The number of cycles of the PCR reaction was 30 cycles for RPE65, BEST1, GAPDH, and 35 cycles for CRALBP. PCR products were detected as a single band by agarose gel electrophoresis at near 369 bp for RPE65, near 261 bp for BEST1, near 341 bp for CRALBP, and near 452 bp for GAPDH. As a positive control, primary human RPE (hRPE) was used and, as a negative control, iPS cells (undifferentiated iPSC) cultured under conditions for maintaining undifferentiated state were used.

[10] = test system: human iPS cells (QHJI01 line and 1231A3 line); test: FGF receptor inhibitor SU5402 in first step (Example 11); assay type: cell-based; conditions: 6 days; 100 nM PD173074; 5, 10, 20 μM SU5402; day 49 of culture
Excerpt: as §1

[11] = test system: human iPS cells (201B7 line and 1231A3 line); test: Production of RPE cells from human iPS cells including FGF receptor inhibitor treatment step (Example 2); assay type: cell-based; conditions: PD173074 100 nM
Excerpt: In one embodiment, to study the effect of the FGF receptor inhibitor in a medium free of a factor for maintaining undifferentiated state (bFGF), StemSure hPSC Medium Δ (Wako Pure Chemical Industries, Ltd.) (hereinafter StemSure hPSC Medium Δ w/o bFGF) not added with bFGF was used.

[12] = test system: human iPS cells (QHJI01 line); test: Differentiation induction effect of Nodal or Wnt signal transduction pathway inhibitor alone in second step (Example 12); assay type: cell-based; conditions: second step day 1 to day 12 with 5 μM SB-431542 and/or 3 μM CKI-7, after first step with 1 μM PD0325901 for 6 days; day 43 of culture
Excerpt: as §1
In the second step, the following 3 kinds of media were used.

In the case of `O=C(NOC[C@H](O)CO)c1ccc(F)c(F)c1Nc1ccc(I)cc1F` [PD0325901, N-[(2R)-2,3-Dihydroxypropoxy]-3,4-difluoro-2-[(2-fluoro-4-iodophenyl)amino]-benzamide], the “emergence of brown-black cell population on culture plate” value (“emergence … on culture plate” for short) ([1]; PD0325901 1 μM in AK03 medium or 0.03 μM in Essential 8 medium, exposed 6 days, observed 38 to 42 days of culture, both 201B7 and 1231A3 lines) is reported as “emergence of a brown-black cell population could be confirmed over a wide area”, the “cell morphology by microscopic observation” value ([1]; PD0325901 1 μM, 6 days first step, 201B7, FIG. 2) is reported as “the cells showed typical characteristics of RPE cell such as a brown-black, polygonal, cobblestone-like morphology” and the “emergence of RPE cells showing typical characteristics” value [2] is reported as “emergence of RPE cells showing typical characteristics of RPE cell such as a brown-black, polygonal, cobblestone-like morphology could be confirmed”. For the same molecule, the “emergence … on culture plate” value [3] was “emergence of a brown-black cell population could be confirmed over a wide area”, the brown-black cell population [4] was “a remarkable increase in the brown-black cell population was seen” and the “proportion of cells that developed color in the whole well versus number of exposure days” value [4] was “the proportion of cells that developed color in the whole well increased as the number of exposure day increased up to 6 days of exposure”. For the same molecule, the brown-black cell populations [4] was “brown-black cell populations increased”, the “emergence of brown-black cell population” value ([5]; exposure for 3 days) was “emergence of a brown-black cell population could be confirmed over a wide area” and the “emergence of brown-black cell population” value ([5]; exposure for 6 days) was “emergence of a brown-black cell population could be confirmed over a wide area”. The “emergence of colored cell population” value ([5]; exposure for 13 days) was “sufficient emergence of colored cell population was also confirmed”, the “cells showing typical characteristics of RPE cell” value ([5]; exposure for one day) was “almost no cell that showed typical characteristics of RPE cell” and the “emergence of brown-black cell population” value ([6]; all MEK inhibitor concentrations (0.25-4 μM)) was “emergence of a brown-black cell population could be confirmed over a wide area”. The “emergence of brown-black cell population” value [7] was “emergence of a brown-black cell population could be confirmed over a wide area”, the “emergence of brown-black cell population” value [8] was “emergence of a brown-black cell population could be confirmed over a wide area” and the “emergence of brown-black cell population” value [9] was “emergence of a brown-black cell population could be confirmed over a wide area”. The “bands of retinal pigment epithelial cell markers RPE65, BEST1, CRALBP by RT-PCR” value (RPE65, BEST1, CRALBP) was “clear bands could be confirmed”.

`Cc1c[nH]c(C=C2C(=O)Nc3ccccc32)c1CCC(=O)O` [SU5402, 2-[(1,2-Dihydro-2-oxo-3H-indol-3-ylidene)methyl]-4-methyl-1H-pyrrole-3-propanoic acid] was tested, and the “emergence of brown-black cell population” value [10] was “emergence of a brown-black cell population could be confirmed over a wide area”.

`N#CC(=C(N)Sc1ccccc1N)C(C#N)=C(N)Sc1ccccc1N` [U0126, 1,4-Diamino-2,3-dicyano-1,4-bis[2-aminophenylthio]butadiene] was tested, and the “emergence of brown-black cell population” value [8] was “emergence of a brown-black cell population could be confirmed over a wide area”.

In the case of `Cn1c(=O)c(F)c(Nc2ccc(I)cc2F)c2c(=O)n(C[C@@H](O)CO)cnc21` [TAK-733, (R)-3-(2,3-dihydroxypropyl)-6-fluoro-5-(2-fluoro-4-iodophenylamino)-8-methylpyrido[2,3-d]pyrimidine-4,7(3H, 8H)-dione], the “emergence of brown-black cell population” value [8] is reported as “emergence of a brown-black cell population could be confirmed over a wide area”.

`CCN(CC)CCCCNc1ncc2cc(-c3cc(OC)cc(OC)c3)c(NC(=O)NC(C)(C)C)nc2n1` [PD173074, N-[2-[[4-(Diethylamino)butyl]amino]-6-(3,5-dimethoxyphenyl)pyrido[2,3-d]pyrimidin-7-yl]-N′-(1,1-dimethylethyl)urea] was tested, and the “cell morphology by microscopic observation” value ([11]; 6 days first step, 201B7, FIG. 5) was “the cells showed typical characteristics of RPE cell such as a brown-black, polygonal, cobblestone-like morphology”, the “emergence … on culture plate” value ([11]; 6 days, AK03 medium, Essential 8 medium or StemSure hPSC Medium Δ w/o bFGF, observed 38 to 42 days, 201B7 line and/or 1231A3 line) was “emergence of a brown-black cell population could be confirmed over a wide area” and the “emergence of RPE cells showing typical characteristics” value [2] was “emergence of RPE cells showing typical characteristics of RPE cell such as a brown-black, polygonal, cobblestone-like morphology could be confirmed”. For the same molecule, the “emergence … on culture plate” value [3] was “emergence of a brown-black cell population could be confirmed over a wide area”, the brown-black cell population [4] was “a remarkable increase in the brown-black cell population was seen” and the “proportion of cells that developed color in the whole well versus number of exposure days” value [4] was “the proportion of cells that developed color in the whole well increased as the number of exposure day increased up to 6 days of exposure”. For the same molecule, the brown-black cell populations [4] was “brown-black cell populations increased”, the “emergence of brown-black cell population” value ([6]; all FGF receptor inhibitor concentrations (25-400 nM)) was “emergence of a brown-black cell population could be confirmed over a wide area” and the “emergence of brown-black cell population” value [7] was “emergence of a brown-black cell population could be confirmed over a wide area”. The “emergence of brown-black cell population” value [10] was “emergence of a brown-black cell population could be confirmed over a wide area”, the “emergence of brown-black cell population” value [9] was “emergence of a brown-black cell population could be confirmed over a wide area” and the “bands of retinal pigment epithelial cell markers RPE65, BEST1, CRALBP by RT-PCR” value (RPE65, BEST1, CRALBP) was “clear bands could be confirmed”.

`NC(=O)c1ccc(-c2nc(-c3ccc4c(c3)OCO4)c(-c3ccccn3)[nH]2)cc1` [NODALi, 4-[4-(1,3-Benzodioxol-5-yl)-5-(pyridin-2-yl)-1H-imidazol-2-yl]benzamide] was tested, and the “emergence of cells showing typical characteristics of RPE cell” value [12] was “emergence of cells showing the same level of typical characteristics of RPE cell such as a brown-black, polygonal, cobblestone-like morphology could be confirmed”.

In the case of `Cc1cc(C(=O)NOCCO)c(Nc2ccc(I)cc2F)n(C)c1=O` [AZD-8330, 2-(2-fluoro-4-iodophenylamino)-N-(2-hydroxyethoxy)-1,5-dimethyl-6-oxo-1,6-dihydropyridine-3-carboxamide], the “emergence of brown-black cell population” value [8] is reported as “emergence of a brown-black cell population could be confirmed over a wide area”.

For `O=C(NOCC1CC1)c1ccc(F)c(F)c1Nc1ccc(I)cc1Cl` [PD184352], the “emergence of brown-black cell population” value [8] was “emergence of a brown-black cell population could be confirmed over a wide area”.

In the case of `NCCNS(=O)(=O)c1ccc(Cl)c2ccncc12` [WNTi, N-(2-Aminoethyl)-5-chloroisoquinoline-8-sulfonamide], the “emergence of cells showing typical characteristics of RPE cell” value [12] is reported as “the brown-black area in the whole well decreased; however, emergence of a sufficient number of cells showing the typical characteristics of RPE cell could be confirmed”.

Source: patent US12221625B2, “Method for producing retinal pigment epithelial cells” (SUMITOMO PHARMA CO., LTD., priority 2015, dated 2025)
